Measured values: patent publication US8663607B2, “Ferrate(VI)-containing compositions and methods of using ferrate(VI)” (Battelle Memorial Institute, priority 2007, dated 2014)

Assay: Treatment of unstained HAP disk (staining by the reagent itself)
Conditions: disk D: unstained disk, 100 μL pH 7 HEPA buffer, 1.3 mg
Protocol: Tea staining Procedure: A calcium-deficient hydroxyapatite (HAP) disk (Clarkson Chromatography Products) was placed into a 50-mL centrifuge tube with 10 mL of tea solution. The centrifuge tube was gently shaken by hand for 15 minutes. The tea solution was decanted and replaced with 10 mL of HPDI water and vortexed for 30 seconds. The water was decanted and replaced with 10 additional mL of HPDI water and vortexed for 30 seconds. The disk was removed with forceps and patted dry with a tissue. The disk was allowed to air dry at room temperature for at least one hour.
Oxidation resistant chelating buffer: 0.25M 1-Hydroxyethylidenediphosphonic acid (etridonic acid) (Dequest® 2010, Thermphos) (HEPA) was pH adjusted by microtitration with 10N NaOH. 1.28 g of 1-Hydroxyethylidenediphosphonic acid was to a 25-mL volumetric flask and brought to volume with HPDI water. The solution was transferred to a 50-mL beaker with a stir bar and pH adjusted using 10.04N NaOH, monitored with a calibrated pH meter. Aliquat 336® (Cognis) (also suitable is Aliquat 134®) (N-methyl-tri-(n-octyl)ammonium chloride), (N-methyl TOA) or “HEPA” chelating pH Buffer: 2.5-μL of N-methyl TOA was added to 5 mL of pH 7 HEPA buffer and sonicated for 1 minute. pH 7 Sodium Dodecyl Sulfate (SDS)/HEPA Buffer: 10 mg of SDS was added to 5 mL of pH 7 HEPA buffer and sonicated for 1 minute. pH 8 SDS/HEPA Buffer: 10 mg of SDS was added to 5 mL of pH 8 HEPA buffer and sonicated for 1 minute.
• A. A tea stained disk was placed into the bowl of the bowl of a watch glass and 100 μL of pH 7 HEPA buffer was pipetted onto the disk surface. 3.7 mg of potassium ferrate(VI) was added to the disk surface and mixed gently. […] The disk was rinsed at 10 minutes with HPDI water. […] 1 mL of pH 7 HEPA buffer was added followed by 9 mL of HPDI water. 9.7 mg of potassium ferrate(VI) was added. The tube was gently hand shaken for 10 minutes. The disk was removed and rinsed with HPDI water. […] 10 mg of potassium ferrate(VI) was added to 1 mL of pH 7 HEPA buffer in a 50 mL centrifuge tube. 9 mL HPDI water was added, and the solution was shaken for a few seconds followed by the addition of a tea stained HAP disk. The disk was removed at 10 minutes and rinsed with HPDI water. […] 1.3 mg of potassium ferrate(VI) added and mixed into the solution. […] 1.4 mg of potassium ferrate(VI) was added to the disk surface and mixed gently. […] The reaction was allowed to continue for 5 minutes. […] The disk was rinsed several times with HPDI water. 100 μL of pH 7 HEPA buffer was pipetted onto the disk surface and allowed to react for 5 minutes.

Q: With potassium ferrate(VI) as the substance, how does the “L* (lightness/darkness)” value read?
A: 103.4

Q: What about the “a* (blue/red)” value of the same substance?
A: −2.2

Q: What about the “appearance of disk after treatment” value of the same substance?
A: very slight yellow tint

Q: And the “b* (yellow/green)” value?
A: 0.5

Q: What about the “reflectance of visible light at 450 nm” value of the same substance?
A: 105.246

Q: And the “reflectance of visible light at 750 nm” value?
A: 102.793

Q: And the “ΔE (versus tea stain)” value?
A: 20.34
